Columns and labels:
[1] = Gastric juice secretion in pylorus ligated rats; format: in vivo; conditions: 30 mg/kg, intraperitoneal, 5 hours after administration
Excerpt: (§1) In addition, Compound (I) and a salt thereof may have also an inhibitory effect on gastric juice secretion and may be used for therapy and prophylaxy of peptic ulcer. […] Further, the compound of the present invention is low in toxicity and has high safety as pharmaceuticals.

[2] = Spontaneous locomotion in mice which received apomorphine; format: in vivo; conditions: 45 mg/kg, oral; apomorphine 0.03 or 0.1 mg/kg, s.c.
Excerpt: Compound (I) of the present invention and a salt thereof can also be used as antidepressants because it can effectively shorten the immobility time of mice during forced swimming thereof and also increase spontaneous locomotor activity.

[3] = KCN-induced cerebral energy metabolism disorders; format: in vivo
Excerpt: (§2) The compound (I) of the present invention and a salt thereof are useful as a cerebral activator. More particularly, Compound (I) and a salt thereof can effectively prolong the survival time of mice suffering from KCN-induced cerebral anoxia or hypobaric hypoxia, and show potent protective action against brain ischemia. Compound (I) and a salt thereof can also improve KCN-induced cerebral energy metabolism disorders. Further, Compound (I) and a salt thereof improve scopolamine-induced amnesia, and show potent anticonvulsive, AChE (acetylchline esterase) inhibitory and GABA-mimetic or GABA-potentiative actions. […] Based on these therapeutic effects, Compound (I) and a salt thereof can be used as a cerebral metabolism activator and/or a nootropic drug.

[4] = Survival time of mice under hypobaric hypoxia (closed container, reduced pressure); format: in vivo; conditions: 30 mg/kg (p.o.); pressure 165 mmHg
Excerpt: as §2

Acute toxicity (LD50) = conditions: mouse, in vivo; oral, male Std/ddY mice, estimated 7 days after administration
Excerpt: as §1

[5] = Preventive effect on maximum electroshock-induced convulsion; format: in vivo, male Std/ddY mice; conditions: 100 mg/kg, oral, 1 hour before electroshock
Excerpt: (Preventive effect on maximum electroshock-induced convulsion)
One hour after oral administration of a test compound to male Std/ddY mice, maximum electroshock (AC 900 V, 25 mA, 0.15 second) was delivered to said mice through corneal electrodes from an electrical stimulator.

Compound | inhibition of tonic extensive convulsion induced by maximum electroshock [5] | further results
O=C1N(C/C=C/C=C/c2ccccc2Cl)CCN1c1ccncc1 [(2E,4E)-1-[5-(2-chlorophenyl)-2,4-pentadienyl]-3-(4-pyridyl)-2-imidazolidinone] | – | decrease in gastric juice secretion [1]: ≥ 42%
O=C1N(C/C=C/c2ccccc2)CCN1c1cccnc1 [(E)-1-cinnamyl-3-(3-pyridyl)-2-imidazolidinone] | – | spontaneous locomotion in mice which received apomorphine [2]: significant increase; KCN-induced cerebral metabolism disorders [3]: improve the KCN-induced cerebral metabolism disorders; decrease in energy metabolism-relating substances (ATP, creatine-P, glucose or glycogen in the brain) induced by KCN [3]: inhibit the decrease; survival time of mice which suffered from hypobaric hypoxia [4]: significantly prolong the survival time; LD50 at 168 h (Acute toxicity (LD50)): > 1500 mg/kg
O=C1N(C/C=C/c2ccc(Cl)cc2)CCN1c1cccnc1 [compound 1, (E)-1-(4-chlorocinnamyl)-3-(3-pyridyl)-2-imidazolidinone] | completely inhibited | –
O=C1N(C/C=C/c2ccc(Cl)cc2)CCN1c1ccncc1 [compound 2, (E)-1-(4-chlorocinnamyl)-3-(4-pyridyl)-2-imidazolidinone] | completely inhibited | –
Cl.O=C1N(C/C=C/c2ccccc2)CCN1c1cccnc1 [compound 3, (E)-1-cinnamyl-3-(3-pyridyl)-2-imidazolidinone hydrochloride] | completely inhibited | decrease in gastric juice secretion [1]: ≥ 42%
O=C1N(C/C=C/c2ccccc2)CCN1c1ncccn1 [compound 4, (E)-1-cinnamyl-3-(2-pyrimidinyl)-2-imidazolidinone] | completely inhibited | –
O=C1N(C/C=C/c2cccc(Cl)c2)CCN1c1ccncc1 [compound 5, (E)-1-(3-chlorocinnamyl)-3-(4-pyridyl)-2-imidazolidinone] | completely inhibited | –
O=C1N(C/C=C/c2ccccc2Cl)CCN1c1ccncc1 [compound 6, (E)-1-(2-chlorocinnamyl)-3-(4-pyridyl)-2-imidazolidinone] | completely inhibited | –
Cc1cccc(/C=C/CN2CCN(c3ccncc3)C2=O)c1 [compound 7, (E)-1-(3-methylcinnamyl)-3-(4-pyridyl)-2-imidazolidinone] | completely inhibited | –
O=C1N(CCC/C=C/c2ccccc2)CCN1c1ccncc1 [compound 8, (E)-1-(5-phenyl-4-pentenyl)-3-(4-pyridyl)-2-imidazolidinone] | completely inhibited | –
O=C1N(C/C=C\c2ccccc2)CCN1c1ccncc1 [compound 9, (Z)-1-cinnamyl-3-(4-pyridyl)-2-imidazolidinone] | completely inhibited | –

Reference: US4886817A, “Imidazolidinones as brain activators” (Tanabe Seiyaku Co., Ltd., priority 1986, dated 1989)
